The NIST ThermoML archive (doi:10.1016/j.jct.2015.11.005)
Numbers after ± are expanded uncertainties.

Details: Crystal; visual observation

Normal melting temperature: 156.00 ± 2.1 °C
SMILES: COc1ccc2[nH]c([S+]([O-])Cc3ncc(C)c(OC)c3C)nc2c1 (stereo unspecified) [Omeprazole]
